According to patent publication US20260138985A1, “Azepino-Indoles for the Treatment of Neurological and Psychiatric Disorders” (Terran Biosciences Inc., priority 2021, published 2026):

Key:
[1] = Metabolic stability in human liver microsomes; format: in vitro ADME; conditions: for difference in half-life and intrinsic clearance versus comparator: Compound 163 vs 8-methoxy-1,2,3,4,5,6-hexahydroazepino[4,5-b]indole, Compounds 1, 2 and 3 vs TBG; for half-life at 0.2 μM: pH 7.4, half life; for half-life at 0.2 μM / microsomal CLint at 0.2 μM / CLint scaled at 0.2 μM: values marked * average of two experiments; for microsomal CLint at 0.2 μM: pH 7.4, intrinsic clearance, read-out: CLint(mic); for CLint scaled at 0.2 μM: pH 7.4, scaled from CLint(mic)
Experimental: Microsomal Assay: Human liver microsomes (20 mg/mL) are obtained from Xenotech, LLC (Lenexa, KS). β-nicotinamide adenine dinucleotide phosphate, reduced form (NADPH), magnesium chloride (MgCl2), and dimethyl sulfoxide (DMSO) are purchased from Sigma-Aldrich.
Determination of Metabolic Stability: 7.5 mM stock solutions of test compounds of the above structural formula (e.g., of an embodiment or aspect of embodiment thereof described herein), or pharmaceutically acceptable salt thereof, are prepared in DMSO. […] The diluted microsomes are added to wells of a 96-well deep-well polypropylene plate in triplicate. […] Reactions are initiated by addition of pre-warmed NADPH solution. The final reaction volume is 0.5 mL and contains 4.0 mg/mL human liver microsomes, 0.2 μM test compound, and 2 mM NADPH in 0.1 M potassium phosphate buffer, pH 7.4, and 3 mM MgCl2. The reaction mixtures are incubated at 37° C., and […] aliquots are removed at 0, 5, 10, 20, and 30 minutes and added to shallow-well 96-well plates which contain […] of ice-cold ACN (acetonitrile) with internal standard to stop the reactions. The plates are stored at 4° C. for 20 minutes after which […] of water is added to the wells of the plate before centrifugation to pellet precipitated proteins. Supernatants are transferred to another 96-well plate and analyzed for amounts of parent remaining by LC-MS/MS using an Applied Bio-systems API 4000 mass spectrometer. The same procedure is followed for the non-deuterated counterpart of the compound and the positive control, 7-ethoxycoumarin (1 μM). Testing is done in triplicate.
Data analysis: The in vitro Ti/s for test compounds are calculated from the slopes of the linear regression of % parent remaining (In) vs incubation time relationship.
[formula] • k=−[slope of linear regression of % parent remaining (In) vs incubation time] • The apparent intrinsic clearance is calculated using the following equation: […]
Data analysis is performed using Microsoft Excel Software.

5-HT2A receptor = target: T1, 5-HT2A receptor (Homo sapiens, UniProt P28223); experiment: Calcium mobilization assay, agonist format, 5-HT2A receptor; format: cell-based; conditions: read-out: 5-HT2A agonist Efficacy @ 10 µM
T1 construct: host or cells: unnamed cell lines
Experimental: (§1) Protocol—in vitro testing at select 5-hydroxytryptamine (5-HT; serotonin) receptors was conducted.
(§2) • 1. Cell lines were expanded from freezer stocks according to standard procedures. • 2. Cells were seeded in a total volume of 20 μL into black-walled, clear-bottom, Poly-D-lysine coated 384-well microplates and incubated at 37° C. for the appropriate time prior to testing.
(§3) • 1. Assays were performed in 1×Dye Loading Buffer consisting of 1× Dye, 1× Additive A and 2.5 mM Probenecid in HBSS/20 mM Hepes. Probenicid was prepared fresh. • 2. Cells were loaded with dye prior to testing. Media was aspirated from cells and replaced with 20 μL Dye Loading Buffer. • 3. Cells were incubated for 30-60 minutes at 37° C.
(§4) • 1. For agonist determination, cells were incubated with sample to induce response. • 2. After dye loading, cells were removed from the incubator and 10 μL HBSS/20 mM Hepes was added. 3× vehicle was included in the buffer when performing agonist dose curves to define • the EC80 for subsequent antagonist assays. Cells were incubated for 30 minutes at room temperature in the dark to equilibrate plate temperature. • 3. Intermediate dilution of sample stocks was performed to generate 4× sample in assay buffer. • 4. Compound agonist activity was measured on a FLIPR Tetra (MDS). Calcium mobilization was monitored for 2 minutes and 10 μL 4× sample in HBSS/20 mM Hepes was added to the cells 5 seconds into the assay.
(§5) • 1. Compound activity was analyzed using CBIS data analysis suite (ChemInnovation, CA). • 2. For agonist mode assays, percentage activity is calculated using the following formula: % Activity=100%×(mean RFU of test sample−mean RFU of vehicle control)/(mean MAX RFU control ligand −mean RFU of vehicle control). • 3. For positive allosteric mode assays, percentage modulation was calculated using the following formula: % Modulation=100%×((mean RFU of test sample−mean RFU of EC20 control)/(mean RFU of MAX control ligand −mean RFU of EC20 control)). • 4. For antagonist and negative allosteric modulation mode assays, percentage inhibition is calculated using the following formula: % Inhibition=100%×(1−(mean RFU of test sample−mean RFU of vehicle control)/(mean RFU of EC80 control−mean RFU of vehicle control)).
(§6) As discussed above, agonism, or partial agonism, of the 5-HT2A receptor (also known as positive allosteric modulation, or 5-HT2A modulation) is useful for the treatment of neurological and psychiatric disorders. For example, 5-HT2A agonism has been correlated with the promotion of neural plasticity (Ly et al., 2018). Agonism of the 5-HT2B receptor has been associated with unwanted cardiac valvulopathy side-effects, a form of cardio-toxicity (Rothman et al., Circulation. 2000, 102, 2836-2841; Fitzgerald et al., Molecular Pharmacology 2000, 57, 75-81). […] Antagonists of the 5-HT2C receptor are also useful for the treatment of neurological and psychiatric disorders (Kennett et al., Neuropharmacology 1997, 36, 609-620).

5-HT2B receptor = target: T2, 5-HT2B receptor (Homo sapiens, UniProt P41595); experiment: Calcium mobilization assay, agonist format, 5-HT2B receptor; format: cell-based; conditions: read-out: 5-HT2B agonist Efficacy @ 5 µM
T2 construct: host or cells: unnamed cell lines
Experimental: as §1, §2, §3, §4, §5, §6

5-HT2C receptor = target: T3, 5-HT2C receptor (Homo sapiens, UniProt P28335); experiment: Calcium mobilization assay, antagonist format, 5-HT2C receptor; format: cell-based; design: dose or concentration left out as unconfirmed
T3 construct: host or cells: unnamed cell lines
T3 sequence (P28335 33-458): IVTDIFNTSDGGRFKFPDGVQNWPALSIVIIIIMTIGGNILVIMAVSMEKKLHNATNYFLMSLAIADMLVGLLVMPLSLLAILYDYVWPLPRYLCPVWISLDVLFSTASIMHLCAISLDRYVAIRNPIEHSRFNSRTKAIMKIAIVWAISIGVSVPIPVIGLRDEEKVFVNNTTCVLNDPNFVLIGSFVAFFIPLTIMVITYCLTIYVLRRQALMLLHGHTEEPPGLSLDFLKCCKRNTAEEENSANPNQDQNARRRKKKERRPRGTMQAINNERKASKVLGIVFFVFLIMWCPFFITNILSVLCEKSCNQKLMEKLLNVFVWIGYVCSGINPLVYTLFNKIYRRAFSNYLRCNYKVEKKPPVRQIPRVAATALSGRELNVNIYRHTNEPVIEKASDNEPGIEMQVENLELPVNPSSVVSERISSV
Experimental: as §1, §2, §3
• 1. For antagonist determination, cells were pre-incubated with sample followed by agonist challenge at the EC80 concentration. • 2. Intermediate dilution of sample stocks was performed to generate 3× sample in assay buffer. • 3. After dye loading, cells were removed from the incubator and […] 3× sample was added. Cells were incubated for 30 minutes at room temperature in the dark to equilibrate plate temperature. Vehicle concentration was 1%. • 4. Compound antagonist activity was measured on a FLIPR Tetra (MDS). Calcium mobilization was monitored for 2 minutes and 10 μL EC80 agonist in HBSS/20 mM Hepes was added to the cells 5 seconds into the assay.
as §5, §6

T1 sequence (P28223 whole entry): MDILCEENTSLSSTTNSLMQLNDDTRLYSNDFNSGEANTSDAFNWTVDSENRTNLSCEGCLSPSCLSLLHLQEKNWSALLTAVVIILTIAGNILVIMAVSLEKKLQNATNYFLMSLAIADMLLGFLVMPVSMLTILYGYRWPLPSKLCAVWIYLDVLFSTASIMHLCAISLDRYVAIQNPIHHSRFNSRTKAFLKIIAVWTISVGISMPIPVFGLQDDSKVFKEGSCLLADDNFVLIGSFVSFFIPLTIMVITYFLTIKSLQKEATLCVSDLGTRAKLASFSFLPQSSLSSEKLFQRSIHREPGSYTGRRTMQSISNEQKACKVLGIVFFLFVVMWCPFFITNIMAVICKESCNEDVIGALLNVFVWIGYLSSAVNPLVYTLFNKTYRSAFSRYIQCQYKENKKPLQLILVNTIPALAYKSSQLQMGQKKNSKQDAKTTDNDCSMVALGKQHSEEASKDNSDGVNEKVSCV
T2 sequence (P41595 whole entry): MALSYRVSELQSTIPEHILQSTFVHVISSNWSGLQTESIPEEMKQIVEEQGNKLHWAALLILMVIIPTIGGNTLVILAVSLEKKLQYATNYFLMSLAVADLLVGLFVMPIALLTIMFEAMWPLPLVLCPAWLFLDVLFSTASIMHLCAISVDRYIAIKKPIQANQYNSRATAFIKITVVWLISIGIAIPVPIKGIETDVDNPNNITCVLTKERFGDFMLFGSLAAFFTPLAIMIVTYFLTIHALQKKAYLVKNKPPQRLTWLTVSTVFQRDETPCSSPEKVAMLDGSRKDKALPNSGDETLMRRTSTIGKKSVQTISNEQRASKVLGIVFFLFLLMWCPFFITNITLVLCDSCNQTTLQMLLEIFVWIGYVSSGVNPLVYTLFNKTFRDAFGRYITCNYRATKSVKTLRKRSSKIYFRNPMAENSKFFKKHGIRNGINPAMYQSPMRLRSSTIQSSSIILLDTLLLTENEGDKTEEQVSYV

Compound	difference in half-life and intrinsic clearance versus comparator [1]	half-life at 0.2 μM [1]	microsomal CLint at 0.2 μM [1]	CLint scaled at 0.2 μM [1]	activation at 10 µM (5-HT2A receptor)	activation at 5 µM (5-HT2B receptor)	inhibition (5-HT2C receptor)	intrinsic clearance ratio ([1]; compared with 8-methoxy-1,2,3,4,5,6-hexahydroazepino[4,5-b]indole)
[2H]C([2H])([2H])Oc1ccc2c3c([nH]c2c1)CCN(C)CC3 [Compound 1, 3-methyl-8-(trideuteriomethoxy)-2,4,5,6-tetrahydro-1H-azepino[4,5-b]indole]	differences in half-life and intrinsic clearance	1.35 h	17.2 µL/min/mg	15.4 mL/min/kg	30.4%	-8.3%	95.5%	
[2H]C([2H])([2H])N1CCc2[nH]c3cc(OC)ccc3c2CC1 [Compound 2, 8-methoxy-3-(trideuteriomethyl)-2,4,5,6-tetrahydro-1H-azepino[4,5-b]indole]	differences in half-life and intrinsic clearance	1.4 h	16.6 µL/min/mg	14.9 mL/min/kg	38%	-0.4%	94.5%	
[2H]C([2H])([2H])Oc1ccc2c3c([nH]c2c1)CCN(C([2H])([2H])[2H])CC3 [Compound 3, 8-(trideuteriomethoxy)-3-(trideuteriomethyl)-2,4,5,6-tetrahydro-1H-azepino[4,5-b]indole]	differences in half-life and intrinsic clearance	1.38 h	16.8 µL/min/mg	15.1 mL/min/kg	40%	-0.7%	95%	
[2H]C([2H])([2H])Oc1ccc2c3c([nH]c2c1)CCNCC3 [Compound 163, 8-(trideuteriomethoxy)-1,2,3,4,5,6-hexahydroazepino[4,5-b]indole]	significant difference in half-life	1.44 h	16.1 µL/min/mg	14.5 mL/min/kg	83%	-0.2%	97.7%	> 1.15
COc1ccc2c3c([nH]c2c1)CCN(C)CC3 [TBG, 8-methoxy-3-methyl-1,2,3,4,5,6-hexahydroazepino[4,5-b]indole, reference compound]		1.5 h	15.6 µL/min/mg	14 mL/min/kg	38.5%	-0.9%	94.7%	
